Broadly, the melting point is the temperature, or range, at which the solid turns liquid.

Read-outs that look alike come from different tables or passages of the source.

Data on 8 compounds can be found in patent publication US20060009438A2, “MODIFIED, HYDROXY-SUBSTITUTED AROMATIC STRUCTURES HAVING CYTOPROTECTIVE ACTIVITY” (Washington University, priority 2000, published 2006).

Data set [1] has as its system HT-22 cells (immortalized hippocampal neurons). Description: HT-22 Cell Neuroprotection Assay (glutamate insult, calcein AM viability). The following applies: ~16 h. The data set is classed as cell-based, murine. The protocol: HT-22 cells (immortalized hippocampal neurons of murine origin) were maintained in DMEM media (Life Technologies, Inc., Gaitherburg, MD) supplemented with 10% charcoal-stripped FBS (HyClone Laboratories, Inc., Logan, UT) and 20 µg/mL gentamycin, according to standard culture conditions.
Cells were plated at a density of 5,000 cells/well in clear-bottomed Nunc 96-well plates (Fisher Scientific, Orlando, FL) and allowed to incubate overnight. Steroids dissolved in DMSO were added at concentrations ranging from 0.01-10 µM and were co-administered with glutamate (10 mM or 20 mM). DMSO was used at concentrations of 0.1% vol/vol as a vehicle control and had no discernible effect on cell viability. After ~16 h of glutamate exposure, cells were rinsed with PBS, pH 7.4, and viability was assessed by the addition of 25 µM calcein AM (Molecular Probes, Inc., Eugene, OR) in PBS for 15 min at room temperature. Fluorescence was determined (excitation 485, emission 530) using a fluorescence FL600 microplate reader (Biotek, Winooski, VT). Cells that were lysed by addition of methanol were used for blank readings. All data were normalized to % cell death, as calculated by (control value - insult value)/control value x 100.

The test system of a further data set is cortical neurons. Description: NMDA-induced neuronal cell death in mixed cortical neuron/glial cultures (Trypan blue counting). In kind it is cell-based, mouse. The protocol:
Glial cell cultures: Glial cell cultures were prepared from P1 mice. Briefly, cortex from P1 mice were dissected and digested with 0.025% trypsin for 30-40 min. After trituration, the cells were plated on poly-D-lysine/laminin coated glass-bottom dishes at a density of approximately 5 x 10^6 cells per dish. Cells were grown for 7-10 days in Eagle's minimal essential medium supplemented with 10% fetal bovine serum, 10% horse serum, 10 ng/ml epidermal growth factor, 2 mM glutamine and 20 mM glucose. Cultures were kept at 37°C in a humidified CO2 atmosphere until they reached confluence. Cultures were then used to support neurons (see below).
Cortical neuronal cultures: Cortical neurons were prepared from E15-16 mouse embryos. Dissociated cortical cells (at a density of 5x 10^6 cells per dish) were plated on a layer of confluent glial cells (7-10 days in vitro), into Eagle's minimal essential medium supplemented with 5% fetal bovine serum, 5% horse serum, 2 mM glutamine, and 21 mM glucose. Cultures were kept at 37°C in a humidified 5% CO2 atmosphere. After 3-5 days in vitro, non-neuronal cell division was halted by exposure to 10^-5 M cytosine arabinoside for 2 days, and cultures were shifted to a growth medium identical to the plating medium but lacking […]. Cultures 9-14 days in vitro were used for the experiments.
Neuronal cell death: Mixed neuron/glial cultures were exposure to NMDA (30 µM) for 24 hours in medium stock (MS) (minimal essential medium with 15.8 mM NaHCO3 and 20 mM glucose, pH 7.4) at 37°C. Cell death was assessed […] by counting cells that stained with Trypan blue (0.4% for 10 minutes at 37°C). Stained neurons were counted from three random fields per dish. For the experiments to test the neuroprotective effect of the 17-β-estradiol and the adamantyl-modified analog thereof, cultures were incubated with the drugs for various time periods prior to when NMDA was added to the medium. Results

Setting [2] is: 10 mM glutamate co-administered, read-out: Sterioid concentration needed to protect 50% of neurons killed by 10 mM Glutamate ED50.
Setting [3] is: 20 mM glutamate co-administered, read-out: Sterioid concentration needed to protect 50% of neurons killed by 20 mM Glutamate ED50.

With `C[C@@]12CC[C@H]3c4ccc(O)cc4CC[C@@H]3[C@H]1CC[C@H]2O` (single isomer, unassigned; ent-17) [Ent-(17 β)-Estradiol, ent-17β-estradiol], the values for the EC50 in data set [1] (setting [2]) and in data set [1] (setting [3]) were 1070 nM and 1270 nM, respectively.
For `CC12CCC3c4cc(C56CC7CC(CC(C7)C5)C6)c(O)cc4CCC3C1CCC2O` (stereo not drawn) [ZYC-33, Ent-(17β)-2-(1-Adamantyl)estra-1,3,5(10)-triene-3,17-diol], in that order: 65 nM and 19 nM.
As to `C[C@]12CC[C@@H]3c4cc(C56CC7CC(CC(C7)C5)C6)c(O)cc4CC[C@H]3[C@@H]1CC[C@@H]2O` [ZYC-5, (17 β)-2-(1-Adamantyl)-estra-1,3,5(10)-triene-3,17-diol], the “protective effect against NMDA-induced neuronal death” value with cortical neurons (100 nM dosage, 30 µM NMDA for 24 hours (Figure 5)) is reported as 10%. Moreover, the “protection from neuronal death due to NMDA exposure” value in the data set on cortical neurons (1 µM drug, pre-incubation, 30 µM NMDA for 24 hours (Figure 5)) was “about half”. Besides, the “effectiveness relative to 17-β-estradiol” value with cortical neurons (1 µM versus 10 µM 17-β-estradiol (one-tenth the dosage)) was “more than three times more effective”. The “neuronal survival versus pre-incubation time” value with cortical neurons (1 µM, 1-12 hours pre-incubation prior to NMDA exposure (Figure 6)) was “no significant difference”. In addition, the “neuronal protection versus pre-incubation time” value with cortical neurons (1 µM, 24 hours pre-incubation prior to NMDA exposure (Figure 6)) is given as “best protection results”.
Regarding `CC(C)(C)c1cc2c(cc1O)CCC1C2CCC2(C)C(O)CCC12` (stereo not drawn) [ZYC-34, Ent-(17β)-2-(1,1-dimethylethyl)estra-1,3,5(10)-triene-3,17-diol], the EC50 in data set [1] (setting [2]) is 240 nM; in data set [1] (setting [3]), 260 nM.
Taken in the same sequence, the figures for `C[C@]12CC[C@@H]3c4ccc(O)cc4CC[C@H]3[C@@H]1CC[C@H]2O` [17 α-Estradiol, 17α-estradiol] were 3100 nM and 16100 nM.
Consider `C[C@]12CC[C@@H]3c4ccc(O)cc4CC[C@H]3[C@@H]1CC[C@@H]2O` [17-β Estradiol, 17-β-estradiol], for which the “reduction of neuronal loss due to NMDA exposure” value with cortical neurons (10 µM drug, pre-incubation, 30 µM NMDA for 24 hours (Figure 5)) is reported as “about 15%”. Moreover, the EC50 in data set [1] (setting [2]) is 2210 nM; in data set [1] (setting [3]) it was 3010 nM.
Take `Cc1c(O)c(C(C)(C)C)cc2c1CC[C@@H]1[C@@H]2CC[C@]2(C)C(=O)CC[C@@H]12` [ZYC-25, 2-(1,1-Dimethylethyl)-3-hydroxy-4-methylestra-1,3,5(10)-trien-17-one]: the melting point is 190 to 192 °C.
Regarding `Cc1c(O)c(C23CC4CC(CC(C4)C2)C3)cc2c1CC[C@@H]1[C@@H]2CC[C@]2(C)C(=O)CC[C@@H]12` [ZYC-26, 2-(1-admantanyl)-3-hydroxy-4-methylestra-1,3,5(10)-trien-17-one], the melting point was in the range of 262 to 263 °C.
